Results: patent US11679984B2, “Composite sols” (Prebona AB, priority 2016, dated 2023)

test system: not given; test: not given; settings: 20° C.; cited from earlier work

Compound | Aqueous solubility [µM]
Cd(OH)2 | 18
Cu(OH)2 | 0.17
Fe(OH)2 | 5.8
Fe(OH)3 | 0.0002
Gd(OH)3 | 0.52
Pb(OH)2 | 6.7

test system: fungal growth; test: Biocidal function: fungal growth on brushed bread slices; format: cell-based, fungi; settings: French bread slices brushed on all sides, 14 days, dark, 18-20° C.
Source text: In this example the following solutions/materials were used: • 1. Deionized water • 2. Solution CuCl2.2H2O in deionized water, 571 ppm Cu • 3. Solution CuCl2.2H2O in deionized water, 1286 ppm Cu • 4. Cu containing sol of example 5 in Table 7a, 571 ppm Cu • 5. Cu containing sol of example 6 in Table 7a, 1286 ppm Cu
Slices of French bread from a local baker were used as substrates for fungal growth. The bread slices were as brushed on all sides with solutions 1-5. The bread slices on dinner plates were put in plastic bags (one slice on a plate to a bag), which were in a dark, closed room where the temperature varied between 18 and 20° C. over the day. After 14 days, the untreated bread slice was severely befouled and the slice seemed to be completely invaded by fungi.

Compound | Fungal growth on treated bread slice
O.O.[Cl-].[Cl-].[Cu+2] [Cu solution containing 1286 ppm Cu, CuCl2.2H2O] | Only little fungal growth
